Molecules are shown by their SMILES.

For 34 compounds, IC50 results are on record in patent publication US20240287080A1 (IDEAYA Biosciences Inc., priority 2021, published 2024).

The target in the first experiment is T1, Pol theta (1-899) (Homo sapiens, UniProt O75417).
T1 construct: Pol theta (1-899) (5 nM) in assay buffer
T1 sequence (O75417 1-899): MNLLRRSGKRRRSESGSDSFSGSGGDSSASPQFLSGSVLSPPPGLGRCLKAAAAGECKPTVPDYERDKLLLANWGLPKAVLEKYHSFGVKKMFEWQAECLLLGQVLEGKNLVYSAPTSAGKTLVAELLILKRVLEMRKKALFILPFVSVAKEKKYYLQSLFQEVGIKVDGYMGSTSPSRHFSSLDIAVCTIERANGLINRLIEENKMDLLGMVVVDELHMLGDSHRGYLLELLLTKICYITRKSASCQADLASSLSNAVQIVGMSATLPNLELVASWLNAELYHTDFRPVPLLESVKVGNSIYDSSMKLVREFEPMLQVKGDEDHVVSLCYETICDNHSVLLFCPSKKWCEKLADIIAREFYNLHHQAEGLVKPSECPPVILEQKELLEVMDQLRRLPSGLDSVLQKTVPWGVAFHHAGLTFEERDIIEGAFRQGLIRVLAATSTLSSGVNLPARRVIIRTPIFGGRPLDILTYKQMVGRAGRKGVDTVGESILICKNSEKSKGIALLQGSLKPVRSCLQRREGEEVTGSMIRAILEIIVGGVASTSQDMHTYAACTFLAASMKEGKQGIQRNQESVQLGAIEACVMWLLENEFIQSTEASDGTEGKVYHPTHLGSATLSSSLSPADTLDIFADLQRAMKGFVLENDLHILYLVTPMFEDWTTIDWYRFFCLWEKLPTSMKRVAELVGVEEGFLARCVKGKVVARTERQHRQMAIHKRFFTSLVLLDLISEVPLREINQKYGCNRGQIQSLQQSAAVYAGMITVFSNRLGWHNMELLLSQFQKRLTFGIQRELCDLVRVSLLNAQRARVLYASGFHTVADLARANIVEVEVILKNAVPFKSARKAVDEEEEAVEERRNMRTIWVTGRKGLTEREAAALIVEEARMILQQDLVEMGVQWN
Description: Pol theta ATPase activity, NADH oxidation-coupled enzymatic assay (ATPase NADH coupling: Standard Screening: hPolQ). It counts as biochemical. As to conditions: Pol theta (1-899) 5 nM, NADH oxidation-coupled ATPase assay; compounds of Table 3. An outline of the steps:
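NADH-coupled ATPase readout: 5 nM Pol theta (1-899) preincubated 15 min with 10-point compound series in Tris pH 7.80, KCl, MgCl2, DTT, BSA, Tween, glycerol, then 100 μM ATP, 300 nM 50-mer poly-dT ssDNA, NADH, PEP, LDH and PK added (stock levels). A340 followed 60 min; slopes fit four-parameter for IC50.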
The compound `COc1nnc(NC(=O)c2cnc(C)cc2-c2ccc(N3CCCCC3)cc2)s1` [Example 476, N-(5-methoxy-1,3,4-thiadiazol-2-yl)-6-methyl-4-[4-(piperidin-1-yl)phenyl]pyridine-3-carboxamide] gave an IC50 of 1000 to 10000 nM. `COc1cnc(C)c(F)c1-c1cc(C)ncc1C(=O)Nc1nnc(O[C@H]2CCC[C@H](O)C2)s1` (single isomer, unassigned) [Example 256] had an IC50 of at most 200 nM. Still for that read-out and setting: then `COc1nnc(NC(=O)c2cnc(C)cc2-c2cccnc2C)s1` [Example 461, N-(5-methoxy-1,3,4-thiadiazol-2-yl)-2,6′-dimethyl-[3,4′-bipyridine]-3′-carboxamide], with 1000 to 10000 nM. On the same count and under the same terms, the value for `COc1cnc(Br)cc1-c1cc(C)ncc1C(=O)Nc1nnc(O[C@@H]2CCC[C@@H](O)C2)s1` [Example 284, 2′-bromo-N-(5-(((1R,3R)-3-hydroxycyclohexyl)oxy)-1,3,4-thiadiazol-2-yl)-5′-methoxy-6-methyl-[4,4′-bipyridine]-3-carboxamide] was at most 200 nM. On the same count and under the same terms, the value for `COc1nnc(NC(=O)c2cnc(C)cc2-c2ccc(S(=O)(=O)N(C)C)cc2)s1` [Example 382, 4-[4-(dimethylsulfamoyl)phenyl]-N-(5-methoxy-1,3,4-thiadiazol-2-yl)-6-methylpyridine-3-carboxamide] was 1000 to 10000 nM; that for `COc1nnc(NC(=O)c2cnc(C)cc2-c2cc[nH]c(=O)c2)s1` [Example 364, N-(5-methoxy-1,3,4-thiadiazol-2-yl)-6-methyl-2′-oxo-1′,2′-dihydro-[4,4′-bipyridine]-3-carboxamide] was 1000 to 10000 nM; that for `COc1nnc(NC(=O)c2cnc(C)cc2-c2cccc(S(=O)(=O)N(C)C)c2)s1` [Example 396, 4-[3-(dimethylsulfamoyl)phenyl]-N-(5-methoxy-1,3,4-thiadiazol-2-yl)-6-methylpyridine-3-carboxamide] was 1000 to 10000 nM.

Regarding `COc1cnc(Cl)cc1-c1cc(C)ncc1C(=O)Nc1nnc(O[C@H]2CO[C@H]3[C@@H]2OC[C@H]3O)s1` [Example 237, 2′-chloro-N-(5-(((3S,3aR,6R,6aR)-6-hydroxyhexahydrofuro[3,2-b]furan-3-yl)oxy)-1,3,4-thiadiazol-2-yl)-5′-methoxy-6-methyl-[4,4′-bipyridine]-3-carboxamide], the IC50 was at most 200 nM. On the same count and under the same terms, the value for `COc1cnc(Cl)cc1-c1cc(C)ncc1C(=O)Nc1nnc(O[C@H]2CN3CCC2CC3)s1` [Example 306, (R)-2′-chloro-5′-methoxy-6-methyl-N-(5-(quinuclidin-3-yloxy)-1,3,4-thiadiazol-2-yl)-[4,4′-bipyridine]-3-carboxamide] was 1000 to 10000 nM. Still for that read-out and setting: the value for `COc1nnc(NC(=O)c2cnc(C)cc2-c2ccc3occc(=O)c3c2)s1` [Example 438, N-(5-methoxy-1,3,4-thiadiazol-2-yl)-6-methyl-4-(4-oxo-4H-chromen-6-yl)nicotinamide] was 1000 to 10000 nM. For the compound `COc1nnc(NC(=O)c2cnc(C)cc2-c2cnccc2C(F)(F)F)s1` [Example 481, N-(5-methoxy-1,3,4-thiadiazol-2-yl)-6′-methyl-4-(trifluoromethyl)-[3,4′-bipyridine]-3′-carboxamide], the IC50 fell in the range of 1000 to 10000 nM.

`COc1nnc(NC(=O)c2cnc(C)cc2-c2cccc(OC)c2C#N)s1` [Example 411, 4-(2-cyano-3-methoxyphenyl)-N-(5-methoxy-1,3,4-thiadiazol-2-yl)-6-methylpyridine-3-carboxamide]: the IC50 is 1000 to 10000 nM.

As to `COc1nnc(NC(=O)c2cnc(C)cc2-c2ccoc2)s1` [Example 390, 4-(furan-3-yl)-N-(5-methoxy-1,3,4-thiadiazol-2-yl)-6-methylpyridine-3-carboxamide], the IC50 lay in the range of 1000 to 10000 nM. Same read-out and setting: then `COc1nnc(NC(=O)c2cnc(C)cc2-c2ccc3c(c2)COC3=O)s1` [Example 416, N-(5-methoxy-1,3,4-thiadiazol-2-yl)-6-methyl-4-(1-oxo-1,3-dihydro-2-benzofuran-5-yl)pyridine-3-carboxamide], with 1000 to 10000 nM. The same measure, in the same setting: then `COc1nnc(NC(=O)c2cnc(C)cc2-c2cc(C)nn2C)s1` [Example 420, 4-(1,3-dimethyl-1H-pyrazol-5-yl)-N-(5-methoxy-1,3,4-thiadiazol-2-yl)-6-methylpyridine-3-carboxamide], with 1000 to 10000 nM; and `COc1nnc(NC(=O)c2cnc(C)cc2-c2ccc3nccnc3c2)s1` [Example 341, N-(5-methoxy-1,3,4-thiadiazol-2-yl)-6-methyl-4-(quinoxalin-6-yl)pyridine-3-carboxamide], with 500 to 1000 nM; and `COc1nnc(NC(=O)c2cnc(C)cc2-c2ccc(C)cc2C)s1` [Example 386, 4-(2,4-dimethylphenyl)-N-(5-methoxy-1,3,4-thiadiazol-2-yl)-6-methylpyridine-3-carboxamide], with 500 to 1000 nM.

Turning to `COc1cnc(Cl)cc1-c1cc(C)ncc1C(=O)Nc1nnc(OC2CCCN(C3CCOC3)C2)s1` (stereo not shown) [Example 247, 2′-chloro-5′-methoxy-6-methyl-N-(5-((1-(tetrahydrofuran-3-yl)piperidin-3-yl)oxy)-1,3,4-thiadiazol-2-yl)-[4,4′-bipyridine]-3-carboxamide], the IC50 was at most 200 nM. On the same count and under the same terms, the value for `COc1nnc(NC(=O)c2cnc(C)cc2-c2cc(F)cc(F)c2)s1` [Example 337, 4-(3,5-difluorophenyl)-N-(5-methoxy-1,3,4-thiadiazol-2-yl)-6-methylpyridine-3-carboxamide] was 500 to 1000 nM.

`COc1cnc(Br)cc1-c1cc(C)ncc1C(=O)Nc1nnc(O[C@H]2CCC[C@H](O)C2)s1` [Example 271, 2′-bromo-N-(5-(((1S,3S)-3-hydroxycyclohexyl)oxy)-1,3,4-thiadiazol-2-yl)-5′-methoxy-6-methyl-[4,4′-bipyridine]-3-carboxamide]: the IC50 is at most 200 nM. On the same count and under the same terms, then `COc1nnc(NC(=O)c2cnc(C)cc2-c2cccc(S(C)(=O)=O)c2)s1` [Example 397, 4-(3-methanesulfonylphenyl)-N-(5-methoxy-1,3,4-thiadiazol-2-yl)-6-methylpyridine-3-carboxamide], with 500 to 1000 nM; and `COc1cnc(Cl)cc1-c1cc(C)ncc1C(=O)Nc1nnc(O[C@H]2C[C@H]3C[C@@H]2C[C@@H]3O)s1` (single isomer, unassigned) [Example 269], with at most 200 nM; and `CCc1cccc(-c2cc(C)ncc2C(=O)Nc2nnc(OC)s2)c1` [Example 383, 4-(3-ethylphenyl)-N-(5-methoxy-1,3,4-thiadiazol-2-yl)-6-methylpyridine-3-carboxamide], with 500 to 1000 nM. In turn, `COc1nnc(NC(=O)c2cnc(C)cc2-c2ccc3nc[nH]c3c2)s1` [Example 490, 4-(1H-1,3-benzodiazol-6-yl)-N-(5-methoxy-1,3,4-thiadiazol-2-yl)-6-methylpyridine-3-carboxamide] registered an IC50 of 1000 to 10000 nM. In turn, `CNS(=O)(=O)c1ccc(-c2cc(C)ncc2C(=O)Nc2nnc(OC)s2)cc1` [Example 384, N-(5-methoxy-1,3,4-thiadiazol-2-yl)-6-methyl-4-[4-(methylsulfamoyl)phenyl]pyridine-3-carboxamide] yielded an IC50 of 1000 to 10000 nM.

Still in this experiment, the particulars now being: Table 4; Pol theta (1-899) 5 nM, ATP, dT50 ssDNA.
`COc1nnc(NC(=O)c2cnc(C)cc2-c2cc([C@@H](C)O)ncc2OC)s1` (single isomer, unassigned) [Example 69] returned an IC50 of 1000 to 10000 nM. Still for that read-out and setting: the value for `COc1cnc(Cl)cc1-c1cc(C)ncc1C(=O)Nc1nnc(OCC2CCOC2C)s1` (stereo not shown) [Example 74, 2′-chloro-5′-methoxy-6-methyl-N-(5-((2-methyltetrahydrofuran-3-yl)methoxy)-1,3,4-thiadiazol-2-yl)-(4,4′-bipyridine)-3-carboxamide] was at most 200 nM.

The experiment is the same for the next values; noted with them: Table 5; Pol theta (1-899) 5 nM, ATP, dT50 ssDNA.
Consider `COc1cnc(Cl)c(F)c1-c1cc(C)ncc1C(=O)Nc1nnc(O[C@@H]2CCOC2)s1` [Example 80, 2′-chloro-3′-fluoro-5′-methoxy-6-methyl-N-(5-(((R)-tetrahydrofuran-3-yl)oxy)-1,3,4-thiadiazol-2-yl)-(4,4′-bipyridine)-3-carboxamide], for which the IC50 was at most 200 nM.

With `Cc1cc(-c2cc(Cl)ncc2OC(F)F)c(C(=O)Nc2nnc(O[C@H]3CCOC3)s2)cn1` [Example 83, (S)-2′-chloro-5′-(difluoromethoxy)-6-methyl-N-(5-((tetrahydrofuran-3-yl)oxy)-1,3,4-thiadiazol-2-yl)-(4,4′-bipyridine)-3-carboxamide], the IC50 is at most 200 nM. On the same count and under the same terms, the value for `COc1cnc(Cl)cc1-c1cc(COC2CC2)ncc1C(=O)Nc1nnc(O[C@@H]2CCOC2)s1` [Example 214, (R)-2′-chloro-6-(cyclopropoxymethyl)-5′-methoxy-N-(5-((tetrahydrofuran-3-yl)oxy)-1,3,4-thiadiazol-2-yl)-(4,4′-bipyridine)-3-carboxamide] was at most 200 nM. With `COc1cnc(Cl)c(F)c1-c1cc(C)ncc1C(=O)Nc1nnc(O[C@H]2CCC[C@@H](O)C2)s1` (single isomer, unassigned) [Example 154], the IC50 was at most 200 nM. On the same count and under the same terms, the value for `COc1cnc(Cl)cc1-c1cc(C)ncc1C(=O)Nc1nnc(O[C@H]2CC[C@@H](CO)CC2)s1` [Example 169, 2′-chloro-N-(5-(((1s,4s)-4-(hydroxymethyl)cyclohexyl)oxy)-1,3,4-thiadiazol-2-yl)-5′-methoxy-6-methyl-(4,4′-bipyridine)-3-carboxamide] was at most 200 nM; that for `Cc1cc(-c2cc(Cl)ncc2OC(F)F)c(C(=O)Nc2nnc(O[C@@H]3COC4(CC4)C3)s2)cn1` (single isomer, unassigned) [Example 232] was at most 200 nM.

Staying with this experiment, now noted: Table 5; values given as bound; Pol theta (1-899) 5 nM, ATP, dT50 ssDNA.
In turn, `COc1nnc(NC(=O)c2cnc(CN3CC(OC)C3)cc2-c2cc(Cl)ncc2OC)s1` [Example 144, 2′-chloro-5′-methoxy-N-(5-methoxy-1,3,4-thiadiazol-2-yl)-6-((3-methoxyazetidin-1-yl)methyl)-(4,4′-bipyridine)-3-carboxamide] registered an IC50 above 10000 nM.
